Reference: ChEMBL document CHEMBL5131442, “Design and synthesis of Osthole-based compounds as potential Nrf2 agonists” (Bioorg Med Chem Lett, 2022)
Activity calls are given as the source filed them. The rule behind the calls is not given here.

Target: Keap1/Nrf2 (Homo sapiens) (UniProt Q16236+Q14145)
Experiment: Inhibition of Keap1-Nrf2 protein-protein interaction in human A549 cells assessed as reduction in Nrf2 ubiquitination by immunoprecipitation analysis
Assay type: cell-based
Conditions: not given

Sequence of Keap1/Nrf2 (Homo sapiens) (Q14145 whole entry, looked up, one chain of several): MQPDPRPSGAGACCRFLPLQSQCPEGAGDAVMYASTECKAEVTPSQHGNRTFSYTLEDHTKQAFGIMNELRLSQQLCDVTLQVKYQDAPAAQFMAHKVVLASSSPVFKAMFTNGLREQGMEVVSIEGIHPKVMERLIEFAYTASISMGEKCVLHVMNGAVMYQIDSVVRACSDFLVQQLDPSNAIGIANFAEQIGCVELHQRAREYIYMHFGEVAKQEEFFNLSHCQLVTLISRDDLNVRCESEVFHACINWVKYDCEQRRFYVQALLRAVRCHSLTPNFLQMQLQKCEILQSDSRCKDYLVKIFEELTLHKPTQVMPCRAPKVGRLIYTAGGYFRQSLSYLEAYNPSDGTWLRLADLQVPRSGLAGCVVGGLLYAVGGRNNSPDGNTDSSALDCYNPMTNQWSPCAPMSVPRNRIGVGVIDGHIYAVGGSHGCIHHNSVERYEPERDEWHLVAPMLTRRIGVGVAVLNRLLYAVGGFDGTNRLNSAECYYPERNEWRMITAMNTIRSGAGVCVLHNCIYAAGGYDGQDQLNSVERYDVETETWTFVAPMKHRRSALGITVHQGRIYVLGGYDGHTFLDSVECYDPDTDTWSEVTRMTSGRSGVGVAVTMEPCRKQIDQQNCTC

| inhibition | SMILES |
| --- | --- |
| Active | CC1(C)CCc2c(c(Br)cc3cc(-c4ccccc4)c(=O)oc23)O1 |

Target: Kelch-like ECH-associated protein 1 (Homo sapiens) (UniProt Q14145)
Sequence (Q14145 whole entry): as the sequence (Q14145 whole entry, looked up, one chain of several) above
Experiment: Binding affinity to Keap1 in human A549 cells assessed as thermal stabilization by measuring change in melting temperature at 10 uM by cellular thermal shift assay
Assay type: cell-based
Conditions: not given

| Activity | SMILES |
| --- | --- |
| Active | CC1(C)CCc2c(c(Br)cc3cc(-c4ccccc4)c(=O)oc23)O1 |

Target: T1, Nuclear factor erythroid 2-related factor 2 (Homo sapiens) (UniProt Q16236)
T1 sequence (whole entry): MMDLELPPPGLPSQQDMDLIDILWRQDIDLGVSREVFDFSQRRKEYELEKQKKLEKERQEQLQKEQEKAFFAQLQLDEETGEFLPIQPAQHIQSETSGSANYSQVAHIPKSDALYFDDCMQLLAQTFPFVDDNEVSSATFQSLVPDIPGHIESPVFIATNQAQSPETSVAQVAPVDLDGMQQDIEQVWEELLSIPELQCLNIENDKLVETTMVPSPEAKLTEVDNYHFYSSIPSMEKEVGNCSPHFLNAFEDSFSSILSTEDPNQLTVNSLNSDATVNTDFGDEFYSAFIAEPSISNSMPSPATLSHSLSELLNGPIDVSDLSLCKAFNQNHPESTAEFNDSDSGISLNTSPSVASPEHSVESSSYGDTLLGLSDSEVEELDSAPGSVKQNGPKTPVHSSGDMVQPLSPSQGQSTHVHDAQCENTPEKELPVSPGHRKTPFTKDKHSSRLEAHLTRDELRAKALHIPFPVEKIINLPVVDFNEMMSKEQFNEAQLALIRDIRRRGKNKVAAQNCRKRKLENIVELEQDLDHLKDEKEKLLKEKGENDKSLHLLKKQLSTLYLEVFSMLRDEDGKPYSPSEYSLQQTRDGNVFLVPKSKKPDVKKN
Experiment: Agonist activity at Nrf2 (unknown origin) at 20 uM by dual-luciferase reporter gene assay
Conditions: filed as agonist

| SMILES | fold change (FC) |
| --- | --- |
| CC(C)=CCc1c(OC(=O)NCCc2c(C)[nH]c3ccccc23)ccc2ccc(=O)oc12 | 0.61 |
| COc1cccc(-c2cc3cc(Br)c4c(c3oc2=O)CCC(C)(C)O4)c1 | 1.41 |
| CC1(C)CCc2c(c(Br)cc3cc(-c4ccc(C(F)(F)F)cc4)c(=O)oc23)O1 | 2.04 |
| CC1(C)CCc2c(c(Br)cc3cc(-c4ccccc4)c(=O)oc23)O1 | 2.57 |
| COc1ccc2ccc(=O)oc2c1CC=C(C)C | 1.18 |
| CC1(C)CCc2c(c(Br)cc3cc(-c4cccc(C(F)(F)F)c4)c(=O)oc23)O1 | 1.52 |
| CC1(C)CCc2c(c(Br)cc3cc(-c4ccc(OC(F)(F)F)cc4)c(=O)oc23)O1 | 1.69 |
| COc1ccccc1-c1cc2cc(Br)c3c(c2oc1=O)CCC(C)(C)O3 | 1.58 |
| Cc1ccc(-c2cc3cc(Br)c4c(c3oc2=O)CCC(C)(C)O4)cc1 | 1.61 |
| CC1(C)CCc2c(c(Br)cc3cc(-c4ccc(F)cc4)c(=O)oc23)O1 | 1.26 |
| CC(C)=CCc1c(OC(=O)NCCc2c[nH]c3ccccc23)ccc2ccc(=O)oc12 | 0.95 |
| COc1ccc(-c2cc3cc(Br)c4c(c3oc2=O)CCC(C)(C)O4)cc1 | 1.53 |

The next lines start with the values.

| fold change (FC) | SMILES |
| --- | --- |
| 1.41 | CC(C)=CCc1c(OC(=O)Cc2c[nH]c3ccc(Br)cc23)ccc2ccc(=O)oc12 |
| 1.56 | COc1ccc2[nH]c(C)c(CC(=O)Oc3ccc4ccc(=O)oc4c3CC=C(C)C)c2c1 |
| 1.51 | CC(C)=CCc1c(OC(=O)Cc2c(C)[nH]c3ccccc23)ccc2ccc(=O)oc12 |
| 0.79 | CC(C)=CCc1c(OC(=O)NCCc2c[nH]c3ccc(Cl)cc23)ccc2ccc(=O)oc12 |
| 1.51 | CC(C)=CCc1c(OC(=O)Cc2c[nH]c3ccc(C)cc23)ccc2ccc(=O)oc12 |
| 1.51 | COc1ccc2c(CC(=O)Oc3ccc4ccc(=O)oc4c3CC=C(C)C)c[nH]c2c1 |
| 0.98 | COc1ccc2[nH]cc(CCNC(=O)Oc3ccc4ccc(=O)oc4c3CC=C(C)C)c2c1 |
| 1.59 | COc1ccc2[nH]cc(CC(=O)Oc3ccc4ccc(=O)oc4c3CC=C(C)C)c2c1 |
| 1.55 | CC(C)=CCc1c(OC(=O)Cc2c[nH]c3ccccc23)ccc2ccc(=O)oc12 |
| 0.73 | COc1ccc2c(CC(C)NC(=O)Oc3ccc4ccc(=O)oc4c3CC=C(C)C)c[nH]c2c1 (centres undefined) |
| 0.95 | CC(C)=CCc1c(OC(=O)NCCc2c[nH]c3ccc(C)cc23)ccc2ccc(=O)oc12 |
| 1.65 | CC(C)=CCc1c(OC(=O)Cc2c[nH]c3cc(Cl)ccc23)ccc2ccc(=O)oc12 |

Target: T2, Nuclear factor erythroid 2-related factor 2 (Homo sapiens, UniProt Q16236)
T2 sequence (Q16236 whole entry): T1 sequence (whole entry)
Experiment: Activation of Nrf2 in HEK293T cells
Assay type: cell-based
Conditions: not given

| EC50 | SMILES |
| --- | --- |
| 4.55 µM | CC1(C)CCc2c(c(Br)cc3cc(-c4ccc(C(F)(F)F)cc4)c(=O)oc23)O1 |
| 2.9 µM | CC1(C)CCc2c(c(Br)cc3cc(-c4ccccc4)c(=O)oc23)O1 |

Target: T1, Nuclear factor erythroid 2-related factor 2 (Homo sapiens)
Experiment: Agonist activity at Nrf2 (unknown origin) at 10 uM by dual-luciferase reporter gene assay
Conditions: filed as agonist

| fold change (FC) | SMILES |
| --- | --- |
| 1.7 | CC(C)(C)c1cc(O)ccc1O |
